Results from patent publication US20100240642A1, “1H-Indole-2-Carboxylic Acid Derivatives Useful As PPAR Modulators” (SMITHKLINE BEECHAM CORPORATION, priority 2006, published 2010).
Like-named read-outs stand apart in the source and are kept apart here.

Molecular target: T1, hPPARγ receptor (Homo sapiens, UniProt P37231)
T1 construct: expressed in transfected cells; host or cells: CV-1 (African Green Monkey kidney, ATCC CCL-70)
T1 sequence (P37231 172-475 isoform P37231-2): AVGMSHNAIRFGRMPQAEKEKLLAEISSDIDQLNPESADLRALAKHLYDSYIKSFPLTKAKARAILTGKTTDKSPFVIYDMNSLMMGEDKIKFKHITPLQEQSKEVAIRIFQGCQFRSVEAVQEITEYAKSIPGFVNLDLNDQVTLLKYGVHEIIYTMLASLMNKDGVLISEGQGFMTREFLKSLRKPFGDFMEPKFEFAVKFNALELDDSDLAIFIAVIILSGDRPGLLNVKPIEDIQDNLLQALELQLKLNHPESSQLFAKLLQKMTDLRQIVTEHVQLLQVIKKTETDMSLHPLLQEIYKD
Experiment: PPARγ Cell-based luciferase assay
From the text: Plasmids—PCR primers containing Kpnl and BamHI restriction sites were used to amplify PPARγ ligand binding domain (LBD) fragment (172-475) from a full-length human clone. The LBD fragment was ligated into the multiple cloning site of pFA-CMV (Stratagene). The resulting construct (pFA-CMV-GAL4-hPPARγLBD carried a fusion of the LBD with the yeast-derived GAL4 DNA-binding domain under the control of the CMV immediate early promoter. Reporter construct UAStkLuc carries a single 17 bp (CGGAGTACTGTCCTCCG) upstream activating sequence (UAS), the tk minimal promoter, and the firefly luciferase gene. The integrity of each construct was confirmed by diagnostic restriction digestion and by sequencing. Plasmid DNA was prepared using Qiagen Maxi-Prep kits.
PPARγ Cell-based luciferase assay—African Green Monkey kidney cell line CV-1 (ATCC CCL-70) was maintained in Dulbecco's Modified Eagle's Medium (D-MEM) containing 10% fetal bovine serum, 2 mM glutamine, and 1% penicillin/streptomycin (pen/strep). In preparation for luciferase assays, CV-1 cells were grown in charcoal-stripped cell medium containing D-MEM/F-12 medium supplemented with 5% or 3% dextran-treated/charcoal-stripped (CS) fetal bovine serum, 2 mM glutamine, with or without 1% pen/strep, as described below. CS fetal bovine serum was purchased from Hyclone; all other cell culture reagents were from Gibco.
The luciferase protocol is a multi-day procedure. On day 1, confluent cells in maintenance medium were subcultured 1:10 into T-175 cm^2 flasks containing 50 mL of 3% CS medium with pen/strep. These flasks were allowed to incubate at 5% CO2 and 37° C. for 72 hours.
Cells were harvested by trypsinization and then transfected using FuGENE (Roche) according to the manufacturer's specifications. Briefly, each transfection contained 0.55 μg pFA_CMV_GAL4_hPPARγ_LBD plasmid, 10.9 μg UAStkLUC, and 24 μg pBluescript (carrier DNA). Plasmid DNA was mixed with FuGENE in OptiMEM-1 medium and incubated for 30 min at room temperature. During this incubation, cells were harvested into 3% CS medium without pen-strep and dispensed at 14 million cells per T-175 cm^2 flask. Transfection mixes were added to the flasks and incubated overnight at 5% CO2 and 37° C.
Transfected cells were added to 384-well plates containing pharmacological agents. Rosiglitazone standard was reconstituted in DMSO at 1 mM. For 11-point dose-response experiments, the compounds were 3-fold serially diluted in DMSO and then stamped to 384-well assay plates (NUNC, catalog #164564) at 0.5 μL/well using a Beckman FX. DMSO and agonist control compound Rosiglitazone (1 mM) were each stamped at 0.5 μL/well to columns 23 and 24, respectively, of the 384-well plates. Transfected cells were harvested in 5% CS medium with pen/strep and dispensed at 10,000 cells/well (50 μL) onto the prepared 384-well compound plates using a Titertek Multidrop. Following overnight incubation at 5% CO2 and 37° C., Steady-Glo reagent (Promega) was added to the assay plates using a Multidrop. Plates were incubated for 10 min to ensure complete cell lysis and read in a ViewLux (PerkinElmer). […] Partial agonism is defined here as 20-80% activation (relative to full agonist rosiglitazone) at concentrations of 10^−6 M or less.

[1] = CV-1 cells transfected with GAL4-hPPARγ LBD and UAStkLuc, at concentrations of 10^−6 M or less, read-out: agonism of the hPPARγ receptor (activation relative to full agonist rosiglitazone)
[2] = CV-1, read-out: agonism of the hPPARγ receptor (activation relative to full agonist rosiglitazone)

Compound | Emax [1] | Emax [2]
Cc1ccc(-c2ccc(O)cc2)cc1Cn1c(C(=O)O)c(-c2ccc(C(C)(C)C)cc2)c2ccccc21 [Example 10, 3-[4-(1,1-dimethylethyl)phenyl]-1-[(4′-hydroxy-4-methyl-3-biphenylyl)methyl]-1H-indole-2-carboxylic acid] | 20 to 80% | 
CC(C)(C)c1ccc(-c2c(C(=O)O)n(Cc3cccc(N4CCOCC4)c3)c3ccccc23)cc1 [Example 26, 3-[4-(1,1-dimethylethyl)phenyl]-1-{[3-(4-morpholinyl)phenyl]methyl}-1H-indole-2-carboxylic acid] | 20 to 80% | 
CC(C)(C)c1ccc(-c2c(C(=O)O)n(Cc3cccc(-c4ccc(OCc5ccccc5)cc4)c3)c3ccccc23)cc1 [Example 8, 3-[4-(1,1-dimethylethyl)phenyl]-1-({4′-[(phenylmethyl)oxy]-3-biphenylyl}methyl)-1H-indole-2-carboxylic acid] | 20 to 80% | 
COCCOc1cc(Cn2c(C(=O)O)c(-c3ccc(C(C)(C)C)cc3)c3ccccc32)cc(OC(=O)N(C)C)c1 [Example 49, 1-[(3-{[(dimethylamino)carbonyl]oxy}-5-{[2-(methyloxy)ethyl]oxy}phenyl)methyl]-3-[4-(1,1-dimethylethyl)phenyl]-1H-indole-2-carboxylic acid] |  | 20 to 80%
CC(=O)N1CCN(c2cccc(Cn3c(C(=O)O)c(-c4ccc(C(C)(C)C)cc4)c4ccccc43)c2)CC1 [Example 35, 1-{[3-(4-acetyl-1-piperazinyl)phenyl]methyl}-3-[4-(1,1-dimethylethyl)phenyl]-1H-indole-2-carboxylic acid] | 20 to 80% | 
COCCOc1cc(Cn2c(C(=O)O)c(Oc3ccc(C(C)(C)C)cc3)c3ccccc32)cc(OCCOC)c1 [Example 61, 1-[(3,5-bis{[2-(methyloxy)ethyl]oxy}phenyl)methyl]-3-{[4-(1,1-dimethylethyl)phenyl]oxy}-1H-indole-2-carboxylic acid] | 20 to 80% | 
CC(C)(C)c1ccc(-c2c(C(=O)O)n(Cc3cc(OCCN4CCCC4)cc(OCC4CC4)c3)c3ccccc23)cc1 [Example 41, 1-[(3-[(cyclopropylmethyl)oxy]-5-{[2-(1-pyrrolidinyl)ethyl]oxy}phenyl)methyl]-3-[4-(1,1-dimethylethyl)phenyl]-1H-indole-2-carboxylic acid] | 20 to 80% | 
Cc1ccc(-c2ccc(C(=O)NCCc3cccs3)cc2)cc1Cn1c(C(=O)O)c(-c2ccc(C(C)(C)C)cc2)c2ccccc21 [Example 33, 3-[4-(1,1-dimethylethyl)phenyl]-1-{[4-methyl-4′-({[2-(2-thienyl)ethyl]amino}carbonyl)-3-biphenylyl]methyl}-1H-indole-2-carboxylic acid] | 20 to 80% | 
CC(C)CCOc1cc(Cn2c(C(=O)O)c(-c3ccc(C(C)(C)C)cc3)c3ccccc32)cc(OCC2CC2)c1 [Example 6, 1-({3-[(cyclopropylmethyl)oxy]-5-[(3-methylbutyl)oxy]phenyl}methyl)-3-[4-(1,1-dimethylethyl)phenyl]-1H-indole-2-carboxylic acid] | 20 to 80% | 
CC(C)(C)c1ccc(-c2c(C(=O)O)n(Cc3cccc(-c4ccc(O)cc4)c3)c3ccccc23)cc1 [Example 9, 3-[4-(1,1-dimethylethyl)phenyl]-1-[(4′-hydroxy-3-biphenylyl)methyl]-1H-indole-2-carboxylic acid] | 20 to 80% | 
COCCOc1cc(Cn2c(C(=O)O)c(-c3ccc(C(C)(C)C)cc3)c3ccccc32)cc(OC(=O)N2CCN(C)CC2)c1 [Example 50, 3-[4-(1,1-dimethylethyl)phenyl]-1-[(3-{[2-(methyloxy)ethyl]oxy}-5-{[(4-methyl-1-piperazinyl)carbonyl]oxy}phenyl)methyl]-1H-indole-2-carboxylic acid] |  | 20 to 80%
Cc1ccc(N2CCOCC2)cc1Cn1c(C(=O)O)c(-c2ccc(C(C)(C)C)cc2)c2ccccc21 [Example 27, 3-[4-(1,1-dimethylethyl)phenyl]-1-{[2-methyl-5-(4-morpholinyl)phenyl]methyl}-1H-indole-2-carboxylic acid] | 20 to 80% | 
CC(C)(C)c1ccc(-c2c(C(=O)O)n(Cc3cccc(N4CCN(S(C)(=O)=O)CC4)c3)c3ccccc23)cc1 [Example 34, 3-[4-(1,1-dimethylethyl)phenyl]-1-({3-[4-(methylsulfonyl)-1-piperazinyl]phenyl}methyl)-1H-indole-2-carboxylic acid] | 20 to 80% | 
COc1ccc(-c2c(C(=O)O)n(Cc3cc(-c4ccc(C(=O)O)cc4)ccc3C)c3ccccc23)cn1 [Example 21, 1-[(4′-carboxy-4-methyl-3-biphenylyl)methyl]-3-[6-(methyloxy)-3-pyridinyl]-1H-indole-2-carboxylic acid] | 20 to 80% | 
CC(C)(C)c1ccc(-c2c(C(=O)O)n(Cc3cccc(N4CCN(C(N)=O)CC4)c3)c3ccccc23)cc1 [Example 37, 1-({3-[4-(aminocarbonyl)-1-piperazinyl]phenyl}methyl)-3-[4-(1,1-dimethylethyl)phenyl]-1H-indole-2-carboxylic acid] | 20 to 80% | 

Now from value to compound, other results behind:

Emax [1] | Compound | Emax [2]
20 to 80% | COCCOCCCOc1cc(Cn2c(C(=O)O)c(Cc3cccc(C(F)(F)F)c3)c3ccccc32)cc(OCC2CC2)c1 [Example 55, 1-({3-[(cyclopropylmethyl)oxy]-5-[(3-{[2-(methyloxy)ethyl]oxy}propyl)oxy]phenyl}methyl)-3-{[3-(trifluoromethyl)phenyl]methyl}-1H-indole-2-carboxylic acid] | 
20 to 80% | COc1cc(Cn2c(C(=O)O)c(-c3ccc(C(C)(C)C)cc3)c3ccccc32)cc(OCC2CC2)c1 [Example 4, 1-{[3-[(cyclopropylmethyl)oxy]-5-(methyloxy)phenyl]methyl}-3-[4-(1,1-dimethylethyl)phenyl]-1H-indole-2-carboxylic acid] | 
20 to 80% | O=C(O)c1c(Cc2cccc(C(F)(F)F)c2)c2ccccc2n1Cc1cc(OCC2CC2)cc(OCC2CC2)c1 [Example 59, 1-({3,5-bis[(cyclopropylmethyl)oxy]phenyl}methyl)-3-{[3-(trifluoromethyl)phenyl]methyl}-1H-indole-2-carboxylic acid] | 
20 to 80% | CC(C)(C)OC(=O)NS(=O)(=O)N1CCN(c2cccc(Cn3c(C(=O)O)c(-c4ccc(C(C)(C)C)cc4)c4ccccc43)c2)CC1 [Example 38, 1-[(3-{4-[({[(1,1-dimethylethyl)oxy]carbonyl}amino)sulfonyl]-1-piperazinyl}phenyl)methyl]-3-[4-(1,1-dimethylethyl)phenyl]-1H-indole-2-carboxylic acid] | 
20 to 80% | CC(C)(C)c1ccc(-c2c(C(=O)O)n(Cc3cccc(-c4ccc(C(=O)O)cc4)c3)c3ccccc23)cc1 [Example 7, 1-[(4′-carboxy-3-biphenylyl)methyl]-3-[4-(1,1-dimethylethyl)phenyl]-1H-indole-2-carboxylic acid] | 
20 to 80% | Cc1ccc(-c2ccc(C(=O)N(C)C)cc2)cc1Cn1c(C(=O)O)c(-c2ccc(C(C)(C)C)cc2)c2ccccc21 [Example 28, 1-({4′-[(dimethylamino)carbonyl]-4-methyl-3-biphenylyl}methyl)-3-[4-(1,1-dimethylethyl)phenyl]-1H-indole-2-carboxylic acid] | 
20 to 80% | COCCOc1cc(Cn2c(C(=O)O)c(-c3ccc(C(C)(C)C)cc3)c3ccccc32)cc(OCc2ccccc2)c1 [Example 67, 3-[4-(1,1-dimethylethyl)phenyl]-1-({3-{[2-(methyloxy)ethyl]oxy}-5-[(phenylmethyl)oxy]phenyl}methyl)-1H-indole-2-carboxylic acid] | 
